inhibition, Ki and IC50 data for 71 compounds are collected here from ChEMBL document CHEMBL5512668, “Macrocyclic Azapeptide Nitriles: Structure-Based Discovery of Potent SARS-CoV-2 Main Protease Inhibitors as Antiviral Drugs” (J Med Chem, 2024).

The target in the first assay is Replicase polyprotein 1ab (Severe acute respiratory syndrome coronavirus 2) (UniProt P0DTD1). The following applies: dose 1.0 µM, time 65.0 min.
In general, inhibition refers to the change of the read-out against control, counted positive when it falls. `COc1cccc(NC2(C(=O)N[C@@H](Cc3ccccc3)C(=O)N(C)N(C#N)Cc3ccc(Cl)cc3)CCCC2)c1` yielded an inhibition of 12%.

Compound `CN(C(=O)[C@H](Cc1ccccc1)NC(=O)C(C)(C)Oc1ccc(Cl)cc1Cl)N(C#N)Cc1ccc(Cl)cc1` came in with an inhibition of 17%.

The compound `CN(C(=O)[C@@H]1CCCN1C(=O)[C@@H](NC(=O)c1cccs1)C(C)(C)C)N(C#N)Cc1cccc(Cl)c1F` returned an inhibition of 5%.

As to `CN(C(=O)[C@H](Cc1ccccc1)NC(=O)C1(Oc2ccc(Cl)cc2Cl)CCCCC1)N(C#N)Cc1ccc(Cl)cc1`, the inhibition was found to be 7%.

On to `CN(C(=O)[C@@H]1Cc2ccccc2CN1C(=O)COc1ccc(Cl)cc1Cl)N(C#N)Cc1ccc(Cl)cc1`, for which the inhibition was determined as 11%.

The compound `CN(C(=O)[C@@H](NC(=O)[C@@H](NC(=O)c1cccs1)C(C)(C)C)C(c1ccccc1)c1ccccc1)N(C#N)Cc1cccc(Cl)c1F` yielded an inhibition of 10%.

Turning to `CN(C(=O)[C@H](Cc1ccc(Cl)cc1)NC(=O)[C@@H](NC(=O)c1cccs1)C(C)(C)C)N(C#N)Cc1cccc(Cl)c1F`, the inhibition was found to be 6%.

On to `CN(C(=O)[C@@H]1Cc2ccccc2CN1C(=O)OCc1ccccc1)N(C#N)Cc1ccc(Cl)cc1`, for which the inhibition came to 26%.

The compound `CN(C(=O)[C@H](Cc1ccccc1)NC(=O)OCc1ccccc1)N(C#N)CC1CCNC1=O` (some centres undefined) returned an inhibition of 21%.

`CN(C(=O)[C@H](Cc1ccccc1)NC(=O)C1(Oc2ccc(Cl)cc2Cl)CCC1)N(C#N)Cc1ccc(Cl)cc1` displayed an inhibition of 8%.

On to `CN(C(=O)[C@H](Cc1ccccc1)NC(=O)[C@@H]1CCCN1C(=O)c1cccs1)N(C#N)Cc1ccc(Cl)cc1`, for which the inhibition worked out at 13%.

Compound `CC(C)c1ccc(OCC(=O)N[C@@H](Cc2ccccc2)C(=O)N(C)N(C#N)Cc2ccc(Cl)cc2)cc1` had an inhibition of 21%.

In turn, `CN(C(=O)[C@H](Cc1ccccc1)NC(=O)[C@@H]1Cc2ccccc2CN1C(=O)c1cccs1)N(C#N)Cc1ccc(Cl)cc1` registered an inhibition of 21%.

`CN(C(=O)[C@@H](NC(=O)[C@@H](NC(=O)c1cccs1)C(C)(C)C)C1CCCCC1)N(C#N)Cc1cccc(Cl)c1F` yielded an inhibition of 21%.

In another assay the target is Procathepsin L (Homo sapiens, UniProt P07711). The assay is described as follows: Inhibition of human cathepsin L using Z-Phe-Arg-pNA as substrate incubated for 60 mins.
Chain of Procathepsin L (P07711 whole entry): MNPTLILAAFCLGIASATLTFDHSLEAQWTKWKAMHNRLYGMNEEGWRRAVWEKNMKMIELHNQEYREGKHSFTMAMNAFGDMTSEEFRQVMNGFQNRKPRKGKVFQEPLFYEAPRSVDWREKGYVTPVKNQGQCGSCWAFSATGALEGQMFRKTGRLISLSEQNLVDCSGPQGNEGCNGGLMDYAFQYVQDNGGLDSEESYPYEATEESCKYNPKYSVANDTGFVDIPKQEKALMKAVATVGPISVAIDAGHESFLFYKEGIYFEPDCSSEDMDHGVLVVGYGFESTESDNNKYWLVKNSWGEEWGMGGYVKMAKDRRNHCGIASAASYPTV
Conditions: not given
One may read the Ki as the dissociation constant of the complex between target and ligand, obtained from inhibition or displacement. A high value points to weaker binding. `CN(C(=O)[C@H](Cc1ccccc1F)NC(=O)[C@@H](NC(=O)c1cccs1)C(C)(C)C)N(C#N)Cc1cccc(Cl)c1F` returned a Ki of 49.6 nM.

`CN(C(=O)[C@H](Cc1cccc(F)c1)NC(=O)[C@@H](NC(=O)c1cccs1)C(C)(C)C)N(C#N)Cc1cccc(Cl)c1F` had a Ki of 178 nM. Compared with the last compound, the Ki is about 3.6-fold higher.

`CN(C(=O)[C@H](Cc1ccccc1)NC(=O)[C@@H](NC(=O)c1cccs1)C(C)(C)C)N(C#N)Cc1cccc(Cl)c1F` showed a Ki of 93.5 nM. Against the preceding compound, the Ki is about 1.9-fold lower.

For the next assay, the target named is Replicase polyprotein 1ab (Severe acute respiratory syndrome coronavirus 2, UniProt P0DTD1).
Conditions: not given
Usually IC50 stands for the concentration at which inhibition is half-maximal. `CN(C(=O)[C@H](Cc1ccccc1)NC(=O)[C@@H](Nc1ccc([N+](=O)[O-])cc1[N+](=O)[O-])C(C)(C)C)N(C#N)Cc1ccc(Cl)cc1`: the IC50 was determined as 2250 nM.

Take `CN(C(=O)[C@H](Cc1ccccc1)NC(=O)C1(NC(=O)c2cccs2)CC1)N(C#N)Cc1ccc(Cl)cc1`: half-maximal inhibition (IC50) required 566 nM.

As for `CN(C(=O)[C@H](Cc1ccccc1F)NC(=O)[C@@H](NC(=O)c1cccs1)C(C)(C)C)N(C#N)Cc1cccc(Cl)c1F`, the IC50 came out at 19 nM.

With `CN1C(=O)[C@H](Cc2ccccc2)N(C(=O)COc2ccc(Cl)cc2Cl)CCCCOc2ccc(F)cc2CN1C#N`, the IC50 was 42 nM.

Consider `COc1ccc(OC)c(CN(C#N)N(C)C(=O)[C@H](Cc2ccccc2)NC(=O)OCc2ccccc2)c1`, for which the IC50 came to 826 nM.

The compound `CN(C(=O)[C@H](Cc1ccccc1)NC(=O)CNc1ccc(F)c(F)c1)N(C#N)Cc1ccc(Cl)cc1` returned an IC50 of 343 nM.

Consider `CN1C(=O)[C@H](Cc2ccccc2)N(C(=O)COc2ccc(Cl)cc2Cl)CCCOc2ccc(F)cc2CN1C#N`, for which the IC50 amounted to 25 nM.

Compound `COc1ccc(Cl)c(F)c1CN(C#N)N(C)C(=O)[C@H](Cc1ccccc1)NC(=O)OCc1ccccc1` returned an IC50 of 392 nM. This IC50 lies about 16-fold higher than the previous one.

`CN(C(=O)[C@H](Cc1cccc(F)c1)NC(=O)[C@@H](NC(=O)c1cccs1)C(C)(C)C)N(C#N)Cc1cccc(Cl)c1F`: the IC50 is 4 nM.

`CN(C(=O)[C@H](Cc1ccccc1)NC(=O)OCc1ccccc1)N(C#N)Cc1ccc([N+](=O)[O-])cc1` yielded an IC50 of 210 nM.

Take `CN(C(=O)[C@H](Cc1ccccc1)NC(=O)[C@@H](NC(=O)c1ccc(-c2cccs2)s1)C(C)(C)C)N(C#N)Cc1ccc(Cl)cc1`: the IC50 came out at 534 nM.

For `CN(C(=O)[C@H](Cc1ccccc1)NC(=O)OCc1ccccc1)N(C#N)Cc1ccc(F)cc1`, the half-maximal inhibitory concentration (IC50) amounted to 294 nM. This IC50 lies about 1.8-fold lower than the previous one.

The compound `COc1c(Cl)cccc1CN(C#N)N(C)C(=O)[C@H](Cc1ccccc1)NC(=O)OCc1ccccc1` displayed an IC50 of 425 nM.

`CN(C(=O)[C@H](Cc1ccccc1)NC(=O)OCc1ccccc1)N(C#N)Cc1cccc(Cl)c1` showed an IC50 of 88 nM.

`CCCS(=O)(=O)N[C@H](C(=O)N[C@@H](Cc1ccccc1)C(=O)N(C)N(C#N)Cc1ccc(Cl)cc1)C(C)(C)C` returned an IC50 of 156 nM.

The compound `COc1cccc(CN(C#N)N(C)C(=O)[C@H](Cc2ccccc2)NC(=O)OCc2ccccc2)c1F` came in with an IC50 of 118 nM.

`CN(C(=O)[C@H](Cc1ccccc1)NC(=O)OCc1ccccc1)N(C#N)Cc1ccc(Br)cc1` gave an IC50 of 200 nM.

`CN(C(=O)[C@H](Cc1ccccc1)NC(=O)OCc1ccccc1)N(C#N)Cc1cccc(F)c1` yielded an IC50 of 142 nM. The IC50 values of the last two compounds are within 1.5-fold of each other.

Compound `CN(C(=O)[C@H](Cc1ccccc1)NC(=O)CNc1c(F)cccc1F)N(C#N)Cc1ccc(Cl)cc1` displayed an IC50 of 987 nM. Against the preceding compound, the IC50 is about 7-fold higher.

In turn, `CN(C(=O)[C@H](Cc1ccccc1)NC(=O)COc1cccc(Cl)c1)N(C#N)Cc1ccc(Cl)cc1` returned an IC50 of 1060 nM. This IC50 and that of the compound before are within 1.5-fold of each other.

Compound `CN(C(=O)[C@H](Cc1ccccc1)NC(=O)COc1cccc(F)c1Br)N(C#N)Cc1ccc(Cl)cc1` registered an IC50 of 1020 nM.

Turning to `CN(C(=O)[C@H](Cc1ccccc1)NC(=O)OCc1ccccc1)N(C#N)Cc1c(F)cc(Br)cc1F`, the IC50 worked out at 81 nM.

`CN(C(=O)[C@H](Cc1ccccc1)NC(=O)OCc1ccccc1)N(C#N)Cc1ccccc1Br` had an IC50 of 188 nM.

`CN(C(=O)[C@H](Cc1ccccc1)NC(=O)OCc1ccccc1)N(C#N)Cc1ccc(Br)c(Cl)c1` had an IC50 of 192 nM.

In the case of `CN(C(=O)[C@H](Cc1ccccc1)NC(=O)OCc1ccccc1)N(C#N)Cc1ccccc1Cl`, the IC50 is 149 nM.

In turn, `CN(C(=O)[C@H](Cc1ccccc1)NC(=O)OCc1ccccc1)N(C#N)Cc1ccsc1` gave an IC50 of 416 nM.

Regarding `CN(C(=O)[C@H](Cc1ccccc1)NC(=O)OCc1ccccc1)N(C#N)Cc1cc(Cl)ccc1F`, the IC50 was determined as 119 nM.

`CN(C(=O)[C@H](Cc1ccccc1)NC(=O)COc1ccc2c(c1)NC(=O)CC2)N(C#N)Cc1ccc(Cl)cc1` showed an IC50 of 960 nM.

Regarding `CN(C(=O)[C@H](Cc1ccccc1)NC(=O)COc1ccc(F)c(F)c1)N(C#N)Cc1ccc(Cl)cc1`, the IC50 is 1150 nM.

For the compound `Cc1csc(C(=O)N[C@H](C(=O)N[C@@H](Cc2ccccc2)C(=O)N(C)N(C#N)Cc2ccc(Cl)cc2)C(C)(C)C)c1`, the IC50 stood at 71 nM.

`CN(C(=O)[C@H](Cc1ccccc1)NC(=O)OCc1ccccc1)N(C#N)Cc1ccc(Br)cc1Cl`: the IC50 was 143 nM.

Compound `CN(C(=O)[C@H](Cc1ccccc1)NC(=O)CCc1ccc(F)c(F)c1)N(C#N)Cc1ccc(Cl)cc1` came in with an IC50 of 1420 nM.

On to `CN(C(=O)[C@H](Cc1ccccc1)NC(=O)OCc1ccccc1)N(C#N)Cc1cccc(Cl)c1F`, for which the IC50 is 35 nM.

Compound `CN(C(=O)[C@H](Cc1ccccc1)NC(=O)[C@@H](NC(=O)c1cccs1)C(C)(C)C)N(C#N)Cc1cccc(Cl)c1F` displayed an IC50 of 15 nM.

`CN(C(=O)[C@H](Cc1ccccc1)NC(=O)CNc1ccc(F)cc1F)N(C#N)Cc1ccc(Cl)cc1` came in with an IC50 of 952 nM.

`CN(C(=O)[C@H](Cc1ccccc1)NC(=O)OCc1ccccc1)N(C#N)Cc1ccc(Br)c(Cl)c1F`: the IC50 came to 125 nM.

In the case of `CN(C(=O)[C@H](Cc1ccccc1)NC(=O)COc1ccc(F)cc1)N(C#N)Cc1ccc(Cl)cc1`, the IC50 came to 1220 nM.

Consider `CN(C(=O)[C@H](Cc1ccccc1)NC(=O)OCc1ccccc1)N(C#N)Cc1ccccc1F`, for which the IC50 amounted to 137 nM.

In turn, `CN(C(=O)[C@H](Cc1ccc(F)cc1)NC(=O)[C@@H](NC(=O)c1cccs1)C(C)(C)C)N(C#N)Cc1cccc(Cl)c1F` displayed a half-inhibitory concentration (IC50) of 25 nM. This IC50 lies about 5.5-fold lower than the previous one.

Compound `CN(C(=O)[C@H](Cc1ccccc1)NC(=O)COc1ccc(Cl)cc1)N(C#N)Cc1ccc(Cl)cc1` gave an IC50 of 1300 nM. This IC50 lies about 52-fold higher than the previous one.

`COc1cccc(OCC(=O)N[C@@H](Cc2ccccc2)C(=O)N(C)N(C#N)Cc2ccc(Cl)cc2)c1` had an IC50 of 1230 nM.

Compound `CN(C(=O)[C@H](Cc1ccccc1)NC(=O)c1cc2cc(Cl)ccc2[nH]1)N(C#N)Cc1ccc(Cl)cc1` came in with an IC50 of 77 nM.

`COc1ccc(OCC(=O)N[C@@H](Cc2ccccc2)C(=O)N(C)N(C#N)Cc2ccc(Cl)cc2)cc1` displayed an IC50 of 1230 nM. This IC50 is about 16-fold higher than that of the compound before.

`COc1ccc(NCC(=O)N[C@@H](Cc2ccccc2)C(=O)N(C)N(C#N)Cc2ccc(Cl)cc2)c(Cl)c1`: 673 nM corresponded to half-maximal inhibition (IC50).

Consider `CN(C(=O)[C@H](Cc1ccccc1)NC(=O)OCc1ccccc1)N(C#N)Cc1ccc(Br)cc1F`, for which the IC50 is 104 nM.

Consider `CN(C(=O)[C@H](Cc1ccccc1)NC(=O)OCc1ccccc1)N(C#N)Cc1cccc(Br)c1`, for which the IC50 is 86 nM.

Turning to `CN(C(=O)[C@H](Cc1ccccc1)NC(=O)[C@@H](NC(=O)C(F)(F)F)C(C)(C)C)N(C#N)Cc1ccc(Cl)cc1`, the IC50 came out at 33 nM.

In turn, `CN1C(=O)[C@H](Cc2ccccc2)N(C(=O)COc2ccc(Cl)cc2Cl)CCCCCOc2ccc(F)cc2CN1C#N` came in with an IC50 of 48 nM.

`CN(C(=O)[C@H](Cc1ccccc1)NC(=O)OCc1ccccc1)N(C#N)Cc1ccc(Br)c(F)c1` came in with an IC50 of 206 nM.

Compound `CN(C(=O)[C@H](Cc1ccccc1)NC(=O)COc1ccc(Cl)cc1Cl)N(C#N)Cc1ccc(Cl)cc1` came in with a 50% inhibitory concentration (IC50) of 1820 nM. Against the preceding compound, the IC50 is about 8.8-fold higher.

`CN(C(=O)[C@H](Cc1ccccc1)NC(=O)[C@@H](NC(=O)C1(F)CC1)C(C)(C)C)N(C#N)Cc1ccc(Cl)cc1` showed an IC50 of 50 nM. This IC50 is about 36-fold lower than that of the compound before.

`COc1ccc(CN(C#N)N(C)C(=O)[C@H](Cc2ccccc2)NC(=O)OCc2ccccc2)cc1` returned an IC50 of 345 nM.

`COc1cccc2[nH]c(C(=O)N[C@@H](Cc3ccccc3)C(=O)N(C)N(C#N)Cc3ccc(Cl)cc3)cc12` had an IC50 of 23 nM.

`CN(C(=O)[C@H](Cc1ccccc1)NC(=O)OCc1ccccc1)N(C#N)Cc1ccco1`: the IC50 was 206 nM.

Turning to `CN(C(=O)[C@H](Cc1ccccc1)NC(=O)COc1cccc2ccccc12)N(C#N)Cc1ccc(Cl)cc1`, the IC50 is 1060 nM. This IC50 lies about 5.1-fold higher than the previous one.

`CN(C(=O)[C@H](Cc1ccccc1)NC(=O)OCc1ccccc1)N(C#N)Cc1ccc(Cl)cc1` yielded an IC50 of 260 nM.

Consider `CN1C(=O)[C@H](Cc2ccccc2)NC(=O)COCCOc2ccc(F)cc2CN1C#N`, for which inhibition was half-maximal at 226 nM (IC50).
